Experimental data reported in PMC9381536, “Non-apoptotic cell death induction via sapogenin based supramolecular particles” (Scientific Reports, 2022).
“Also recorded” adds a separate entry of the source.

Key:
A549 = assay: Cytotoxicity analysis (WST-1); format: cell-based; details: Homo sapiens, A549, 48 h
Protocol: (§1) HCC1937 (Human breast cancer line), HeLa (Human […]), A549 (Human lung adenocarcinoma), MRC-5 (Human lung fibroblasts), MCF7 (Human breast cancer cells), A549 (human lung carcinoma) were obtained from American Type Culture Collection and maintained as exponentially growing monolayers by culturing according to the supplier’s instructions. MCF7, HeLa, MRC-5, and A549 cell lines were cultured and routinely passaged in DMEM media containing 10% FBS, while HCC1937 cell lines were propagated in RPMI 1640 containing 10% FBS.
(§2) Following the treatment with compounds or vehicle for 48 h, the 10% WST-1 (Roche, Switzerland) in medium was replaced in each 96 well. After 4 h incubation with WST-1 reagent at 37 °C and 5% CO2, the absorbance was measured using a microplate reader at 440 nm (Varioscan, Thermo Fisher Scientific, US). Graph Pad Prism 5 (San Diego, CA, US.) was used to calculate the IC50, which represents the concentration of compounds that is required for 50% inhibition in comparison to the vehicle-treated controls. The experiments were repeated three times independently.

MCF7 = assay: Cytotoxicity analysis (WST-1); format: cell-based; details: Homo sapiens, MCF7, 48 h
Protocol: as §1, §2

MRC-5 = assay: Cytotoxicity analysis (WST-1); format: cell-based; details: Homo sapiens, MRC5, MRC-5 normal cell line, 48 h
Protocol: as §1, §2

HeLa = assay: Cytotoxicity analysis (WST-1); format: cell-based; details: Homo sapiens, 48 h
Protocol: as §1, §2

HCC1937 [1] = assay: Cytotoxicity analysis (WST-1); format: cell-based; details: Homo sapiens, HCC1937, 48 h
Protocol: as §1, §2

HCC1937 cells = assay: Cytotoxicity of 220 nm filtrates; format: cell-based; details: inferred from filtration and Tween-20 tests
Protocol: Figure 1 AG-08 mediated cytotoxicity relies on the supramolecular structures. (A) Structure of AG-08. (B) The scanning transmission electron micrograph of 16 µM AG-08 in PBS. Figure is a representative image of stained sample with uranyl acetate (5683 × magnification; scale bar 600 nm). (C) After 3 h incubation of Nile red solution with AG-08 or AG, fluorescence intensity of Nile red was measured. (D) AG-08, Staurosporine (Sta) or vehicle samples prepared in the cell condition medium was filtrated by 220 nm filter and HCC1937 cells were exposed to the filtrates. After 24 h, the viability of cells was measured and represented as a percentage of that of the vehicle control. The error bars represent mean value ± s.d. (n = 3). *p < 0.05, **p < 0.005, ***p < 0.001. (E) Tween 20 (1:40,000) was added to the fresh medium before addition of 8 μM AG-08 or vehicle. Then cell medium was replaced with this fresh medium. Cell viability was detected after 24 h incubation. […] TEXT PRINTED IN THE PICTURE: (F) no label printed: Diameter: 153.2±4.6; polydispersity index: 0.218
To verify that the activity of AG-08 arises from its supramolecular structures, freshly prepared AG-08 solutions were filtered using 220 nm-filters to remove AG-08 supramolecular particles from medium, and the filtrates were analyzed for their cytotoxicity. […] Next, Tween-20 was utilized as a non-ionic detergent to block particle formation, and AG-08-mediated cell death was inhibited as expected (Fig. 1E). […]

HCC1937 [2] = assay: LDH (lactate dehydrogenase) releasing assay; format: cell-based, Human; details: LDH release and immunoblotting
Protocol: Figure 5 The cytotoxic activity of analogs depends on particle formation like AG-08. […] The level of released LDH was calculated as fold change relative to vehicle. […] After 24 h, cell viability was measured. […] Cell viability after 24 h was measured. The reported values correspond to mean values ± standard deviation (± s.d) of three experiments. ***p < 0.001, ****p < 0.0001.
LDH-Cytotoxicity Colorimetric Assay Kit II (Biovision) was used to detect LDH releasing. Briefly, HCC1937 were seeded on 96 well plate. After treatment with compounds, cells were centrifuged at 600×g for 10 min. 10 µl supernatant were transferred into clean 96 well plate and added into 100 µl LDH Reaction Mix. Following 30 min incubation at room temperature, 10 µl stop solution were added, and absorbance was measured at 450 nm (Varioscan, Thermo Fisher Scientific, US).

[3] = system: HeLa, HCC1937, MCF7, A549 and MRC-5; assay: cells; format: cell-based, Human; details: for IC50: Homo sapiens, range over HeLa, HCC1937, MCF7, A549, MRC-5, read-out: IC50 across the five cell lines
Source text: We next aimed to further characterize the relation between the chemical structure of AG-08 and its capacity of supramolecular assembly formation together with its biological activities by preparing further derivatives. In this regard, 18 analogs (Fig. 4) were synthesized from 20(27)-octanor-cycloastragenol (SCG), cycloastragenol (CG), and astragenol (AG) by the methods shown in the method section. The details and characterization of which are shown in Supplementary Information. The cytotoxic activities of the semi-synthetic analogs were evaluated against four human cancer cell lines, namely HeLa, HCC1937, MCF7, and A549 as well as against MRC-5 as a normal cell line.
as §1, §2

[4] = Nile red staining (particle formation); format: physicochemical; details: even at 30 µM
Protocol: AG-08 and AG were dissolved in DMSO as a 1000-fold concentrated stock added into the filtered PBS, which contain 2.5 µM Nile red. After 3 h incubation at room temperature, the fluorescence intensity was measured with a microplate reader (550 nm for excitation and 635 nm for the emission wavelength) (Varioscan, Thermo Fisher Scientific, US).

[5] = fibrils inducing apoptosis; cited from earlier work

Row | SMILES | IC50 (A549) [µM] | IC50 (MCF7) [µM] | IC50 (MRC-5) [µM] | IC50 (HeLa) [µM] | IC50 (HCC1937 [1]) [µM] | formation of supramolecular assemblies/particles (HCC1937 cells) | mode of cell death (HCC1937 [2]) | cytotoxic activity (structure-activity statement) [3] | IC50 [3] [µM] | Nile red fluorescence intensity (particle formation) [4] | concentration at which fibrils form [5] [µM]
1 | CC(=O)Nc1ccc(S(=O)(=O)OC2CCC34CC35CCC3(C)C(C6(C)CCC(C(C)(C)O)O6)C(O)CC3(C)C5C=CC4C2(C)C)cc1 (centres unmarked) [CG-06] | > 50 | 41.3 | > 50 | > 50 | 38.1 | form supramolecular assemblies | induced necrotic cell death | complete activity loss |  |  | 
2 | Cc1ccc(S(=O)(=O)OC2CCC3(C)C4=CCC5(C)C(C6(C)CCC(C(C)(C)O)O6)C(O)CC5(C)C4CC(=O)C3C2(C)C)cc1 (centres unmarked) [AG-05] | 2.02 | 2.55 | 1.55 | 5.9 | 4.28 | form supramolecular assemblies; also recorded: formed supramolecular particles | induced necrotic cell death | higher activity | 1.55 to 5.9 |  | 
3 | CC(=O)Nc1ccc(S(=O)(=O)OC2CCC3(C)C4=CCC5(C)C(C6(C)CCC(C(C)(C)O)O6)C(O)CC5(C)C4C=CC3C2(C)C)cc1 (centres unmarked) [AG-06] | 5.7 | 9.34 | 19.1 | 10.8 | 10 | formed supramolecular particles | induced necrotic cell death | decrease in activity | 5.7 to 19.1 |  | 
4 | CC(C)(O)C1CCC(C)(C2C(O)CC3(C)C4CC(O)C5C(C)(CCC(O)C5(C)C)C4=CCC23C)O1 (centres unmarked) [AG, astragenol, reference compound] | > 30 | > 30 | > 30 | > 30 | > 30 |  |  |  |  | no fluorescence intensity | 
5 | Cc1ccc(S(=O)(=O)OC2CCC34CC35CCC3(C)C(C6(C)CCC(C(C)(C)O)O6)C(O)CC3(C)C5CC(=O)C4C2(C)C)cc1 (centres unmarked) [CG-05] | 1.85 | 3.85 | 2.58 | 6.1 | 2.66 | form supramolecular assemblies; also recorded: formed supramolecular particles | induced necrotic cell death | higher activity | 1.85 to 6.1 |  | 
6 | C=C(C)[C@@H]1CC[C@]2(C(=O)O)CC[C@]3(C)[C@H](CC[C@@H]4[C@@]5(C)CC[C@H](O)C(C)(C)[C@@H]5CC[C@]43C)[C@@H]12 [betulinic acid] |  |  |  |  |  |  |  |  |  |  | > 50000
7 | Cc1ccc(S(=O)(=O)OC2CCC34CC35CCC3(C)C(C6(C)CCC(C(C)(C)O)O6)C(O)CC3(C)C5C=CC4C2(C)C)cc1 (centres unmarked) [CG-03] | 3.65 | 5.5 | 5.29 | 12.9 | 6.13 | form supramolecular assemblies; also recorded: formed supramolecular particles | induced necrotic cell death |  | 3.65 to 12.9 |  | 
